Reference: patent publication US10472356B2, “Bicyclic ketone sulfonamide compounds” (AMGEN INC., priority 2015, dated 2019)

Assays:
Type in all cases: cell-based
human Nav1.7 [1] = biological target: T1, human Nav1.7 (Homo sapiens, UniProt Q15858); assay: Nav 1.7 In Vitro PatchXpress (PX) Assay; conditions: HEK 293 cells stably transfected with human Nav1.7; PatchXpress whole cell voltage clamp; partially inactivated state (holding potential yielding 20 to 50% inactivation); read-out: hNav1.7 PX IC50
T1 construct: expressed in transfected cells; host or cells: HEK293
T1 sequence (Q15858 whole entry): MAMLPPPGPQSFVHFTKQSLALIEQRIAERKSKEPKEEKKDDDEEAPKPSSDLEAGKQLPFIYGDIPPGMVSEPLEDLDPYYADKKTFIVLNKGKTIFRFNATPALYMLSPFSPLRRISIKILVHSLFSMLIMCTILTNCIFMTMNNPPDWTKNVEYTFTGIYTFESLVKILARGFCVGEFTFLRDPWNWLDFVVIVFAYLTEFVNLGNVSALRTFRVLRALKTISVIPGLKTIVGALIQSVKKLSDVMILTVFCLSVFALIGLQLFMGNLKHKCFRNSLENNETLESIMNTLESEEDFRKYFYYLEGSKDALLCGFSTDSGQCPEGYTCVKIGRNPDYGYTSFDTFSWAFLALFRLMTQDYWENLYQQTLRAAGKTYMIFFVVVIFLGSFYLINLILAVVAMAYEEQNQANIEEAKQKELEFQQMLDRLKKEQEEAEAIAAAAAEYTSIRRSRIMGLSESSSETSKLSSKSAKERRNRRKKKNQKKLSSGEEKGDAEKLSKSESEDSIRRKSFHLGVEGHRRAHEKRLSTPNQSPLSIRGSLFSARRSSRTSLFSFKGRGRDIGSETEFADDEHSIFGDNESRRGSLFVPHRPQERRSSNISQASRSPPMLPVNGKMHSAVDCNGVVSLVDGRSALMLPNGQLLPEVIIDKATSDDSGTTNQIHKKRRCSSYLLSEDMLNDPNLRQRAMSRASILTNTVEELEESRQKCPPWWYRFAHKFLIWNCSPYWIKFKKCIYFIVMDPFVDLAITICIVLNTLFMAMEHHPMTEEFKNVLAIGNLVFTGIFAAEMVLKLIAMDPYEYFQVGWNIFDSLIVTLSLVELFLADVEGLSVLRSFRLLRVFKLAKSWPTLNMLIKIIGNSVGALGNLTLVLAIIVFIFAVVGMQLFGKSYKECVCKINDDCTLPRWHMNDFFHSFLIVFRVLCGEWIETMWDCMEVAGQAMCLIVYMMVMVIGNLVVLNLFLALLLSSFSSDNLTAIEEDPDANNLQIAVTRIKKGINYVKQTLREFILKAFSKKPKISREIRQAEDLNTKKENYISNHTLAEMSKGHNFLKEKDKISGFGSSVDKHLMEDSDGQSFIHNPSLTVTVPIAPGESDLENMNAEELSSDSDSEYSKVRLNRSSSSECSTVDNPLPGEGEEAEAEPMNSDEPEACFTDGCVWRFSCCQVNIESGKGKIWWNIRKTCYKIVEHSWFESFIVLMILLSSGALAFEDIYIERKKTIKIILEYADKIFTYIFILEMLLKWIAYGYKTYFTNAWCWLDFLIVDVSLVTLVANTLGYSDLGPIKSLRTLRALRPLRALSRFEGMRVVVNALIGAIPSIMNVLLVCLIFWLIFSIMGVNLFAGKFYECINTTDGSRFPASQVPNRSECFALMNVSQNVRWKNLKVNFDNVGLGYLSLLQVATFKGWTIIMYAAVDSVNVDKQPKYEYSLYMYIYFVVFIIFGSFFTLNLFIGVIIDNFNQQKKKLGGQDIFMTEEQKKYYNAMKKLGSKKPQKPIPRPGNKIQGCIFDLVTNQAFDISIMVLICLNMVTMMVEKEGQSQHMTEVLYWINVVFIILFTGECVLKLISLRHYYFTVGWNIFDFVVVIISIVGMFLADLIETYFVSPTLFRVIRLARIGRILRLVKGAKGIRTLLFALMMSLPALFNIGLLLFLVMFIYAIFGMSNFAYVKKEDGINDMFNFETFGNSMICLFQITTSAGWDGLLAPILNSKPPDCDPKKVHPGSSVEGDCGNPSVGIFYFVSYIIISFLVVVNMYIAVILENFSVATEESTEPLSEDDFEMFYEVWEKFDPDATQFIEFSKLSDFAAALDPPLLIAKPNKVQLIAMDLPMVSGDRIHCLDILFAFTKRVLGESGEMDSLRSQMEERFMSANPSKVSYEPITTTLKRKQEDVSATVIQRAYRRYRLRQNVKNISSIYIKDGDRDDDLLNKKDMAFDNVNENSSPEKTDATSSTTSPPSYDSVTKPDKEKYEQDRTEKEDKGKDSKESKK
Summary of the method: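 Percent inhibition of peak sodium current taken after 3 min exposure to one compound concentration, 3–5 cells each, with IC50 curve fits. Partially inactivated channels (20–50% inactivation at holding potential) in Nav1.7-HEK 293 cells, activated by 20 ms steps to −10 mV every 10 s.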

human Nav1.7 [2] = biological target: T1, human Nav1.7; assay: Nav 1.7 IWQ In Vitro Assay (IonWorks Quattro); conditions: HEK293 cells stably transfected with human Nav 1.7; IonWorks Quattro population patch-clamp; 26th pulse to −20 mV, 5 Hz; cells unclamped 5 to 8 minutes with compound; read-out: hNav1.7 IWQ IC50
Method: Nav 1.7 or Nav 1.5 IWQ In Vitro Assay
HEK293 cells stably transfected with either human Nav 1.7 or human Nav 1.5 were recorded in population patch-clamp mode with the IonWorks® Quattro automated electrophysiology system (Molecular Devices, LLC, Sunnyvale, Calif.). Cells were voltage clamped to −110 mV for three seconds (Nav 1.7) or half a second (Nav 1.5) and sodium currents were elicited by a train of 26 depolarizations of 150 msec duration to −20 mV (Nav 1.7) or 0 mV (Nav 1.5) at a frequency of 5 Hz. Cells were then left unclamped for a period of 5 to 8 minutes while a single concentration of test compound was added. Following this compound incubation period, cells were then reclamped to −110 mV for three seconds (Nav1.7) or half a second (Nav1.5) to recover unbound channels and put through the same 26 pulse voltage protocol as above. Peak inward current during the 26th pulse to −20 mV (Nav 1.7) or 0 mV (Nav 1.5) in the presence of compound was divided by the peak inward current evoked by the 26th pulse to −20 mV (Nav1.7) or 0 mV (Nav1.5) in the absence of compound to determine percent inhibition. Concentration-response curves of percent.

human Nav1.7 [3] = biological target: T1, human Nav1.7; assay: Nav 1.7 IWB In Vitro Assay (IonWorks Barracuda); conditions: HEK293 cells stably transfected with human Nav 1.7; IonWorks Barracuda population patch-clamp; cells clamped to −20 mV for 4 minutes with compound; 26th pulse; read-out: hNav1.7 IWB IC50
Summary of the method: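 IC50 derived from concentration-response of percent block of the 26th-pulse peak inward current, compound vs none. Protocol: stable human Nav 1.7 HEK293 cells on automated population patch clamp, held at −110 mV, 5 Hz train of 150 ms steps to −20 mV, 4 min compound exposure depolarized at −20 mV, 3 s repolarization, train repeated.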

IC50 (human Nav1.7 [1])	IC50 (human Nav1.7 [2])	IC50 (human Nav1.7 [3])	SMILES
0.0351 µM	0.0152 µM	0.0378 µM	COc1cc(-c2ccc(Cl)c(C)c2)c(F)cc1-n1c2c(ccc1=O)CN(S(=O)(=O)Nc1nccs1)CC2 (racemic) [Example 39, (Rac)-1-(4′-chloro-2-fluoro-5-methoxy-3′-methyl-4-biphenylyl)-2-oxo-N-1,3-thiazol-2-yl-1,5,7,8-tetrahydro-1,6-naphthyridine-6(2H)-sulfonamide]
0.0561 µM	0.0067 µM	0.0109 µM	COc1cc(-c2cc(F)cc(Cl)c2)c(F)cc1-n1c2c(ccc1=O)CN(S(=O)(=O)Nc1cccnn1)CC2 (single isomer, unassigned) [Example 38-P, P-1-(3′-chloro-2,5′-difluoro-5-methoxy-4-biphenylyl)-2-oxo-N-3-pyridazinyl-1,5,7,8-tetrahydro-1,6-naphthyridine-6(2H)-sulfonamide]
0.0533 µM	0.0196 µM	0.0261 µM	COc1cc(-c2ccc(Cl)c(C)c2)c(F)cc1-n1c2c(ccc1=O)CN(S(=O)(=O)Nc1cccnn1)CC2 (racemic) [Example 33-(Rac), (Rac)-1-(4′-chloro-2-fluoro-5-methoxy-3′-methyl-4-biphenylyl)-2-oxo-N-3-pyridazinyl-1,5,7,8-tetrahydro-1,6-naphthyridine-6(2H)-sulfonamide]
0.0254 µM	0.007 µM	0.0068 µM	COc1cc(-c2cc(C(F)(F)F)cnc2OC)c(F)cc1-n1c2c(ccc1=O)CN(S(=O)(=O)Nc1ccon1)CC2 (racemic) [Example 23, (Rac)-1-(5-fluoro-2-methoxy-4-(2-methoxy-5-(trifluoromethyl)-3-pyridinyl)phenyl)-N-3-isoxazolyl-2-oxo-1,5,7,8-tetrahydro-1,6-naphthyridine-6(2H)-sulfonamide]
0.103 µM	0.026 µM	0.0124 µM	COc1cc(-c2cc(F)cc(F)c2)c(F)cc1-n1c2c(ccc1=O)CN(S(=O)(=O)Nc1cccc(F)n1)CC2 (single isomer, unassigned) [Example 14-P, P-N-(6-fluoro-2-pyridinyl)-2-oxo-1-(2,3′,5′-trifluoro-5-methoxy-4-biphenylyl)-1,5,7,8-tetrahydro-1,6-naphthyridine-6(2H)-sulfonamide]
0.0243 µM	0.0077 µM	0.0095 µM	COc1cc(-c2ccc(C)c(F)c2)c(F)cc1-n1c2c(ccc1=O)CN(S(=O)(=O)Nc1ccon1)CC2 (single isomer, unassigned) [Example 21-P, P-1-(2,3′-difluoro-5-methoxy-4′-methyl-4-biphenylyl)-N-3-isoxazolyl-2-oxo-1,5,7,8-tetrahydro-1,6-naphthyridine-6(2H)-sulfonamide]
0.164 µM	0.0032 µM	0.0365 µM	COc1cc(OC)cc(-c2cc(OC)c(-n3c4c(ccc3=O)CN(S(=O)(=O)Nc3ccon3)CC4)cc2F)c1 [Example 90, P-1-(2-fluoro-3′,5,5′-trimethoxy-[1,1′-biphenyl]-4-yl)-N-(isoxazol-3-yl)-2-oxo-1,2,7,8-tetrahydro-1,6-naphthyridine-6(5H)-sulfonamide]
0.408 µM	0.0888 µM	0.0485 µM	COc1cc(C#CC2CCCC2)c(F)cc1-n1c2c(ccc1=O)CN(S(=O)(=O)Nc1ccon1)CC2 (racemic) [Example 34-(Rac), (Rac)-1-(4-(cyclopentylethynyl)-5-fluoro-2-methoxyphenyl)-N-3-isoxazolyl-2-oxo-1,5,7,8-tetrahydro-1,6-naphthyridine-6(2H)-sulfonamide]
0.0913 µM	0.0143 µM	0.0178 µM	COc1cc(-c2ccc(C)c(F)c2)c(F)cc1-n1c2c(ccc1=O)CN(S(=O)(=O)Nc1ccon1)CC2 (racemic) [Example 21-(Rac), (Rac)-1-(2,3′-difluoro-5-methoxy-4′-methyl-4-biphenylyl)-N-3-isoxazolyl-2-oxo-1,5,7,8-tetrahydro-1,6-naphthyridine-6(2H)-sulfonamide]
